This experiment deals with Plasmodium falciparum blood stage parasites. As to the kind of experiment: Growth assay over three life cycles (delayed death). The format is cell-based. Particulars: 0.2 µM; 48, 96, 144 h. How it is done: To determine the impact of (3i) on apicoplast biogenesis, parasites were treated for 48 h with 0.2 µM of (3i) or 0.2 µM of (2i) (a control of (3i) for which the active CCl3 was replaced by a methyl CH3 group) and compared to untreated parasites by immunofluorescence assay. […] In order to determine if the apicoplast is the main target of (3i), we performed a growth assay over three life cycles to assess a potential delayed death effect, one of the major signature for compounds affecting apicoplast. […] The second interpretation could be that, unlike chloramphenicol or doxycycline, which cause a delayed death phenotype on Plasmodium, (3i) could act like fosmidomycin or actinonin and cause a rapid death phenotype.
To observe a potential effect of delayed death of the molecule on the parasite, Plasmodium was maintained on three life cycles (48 h). […] Fluorescence from each well was measured with TECAN infinite M200 plate reader (excitation: 485 nm, emission: 538 nm and integration time: 1000 μs). […] A graph was obtained by performing the ration of the treated culture fluorescence intensity on the untreated culture fluorescence intensity (n = 3).

`O=[N+]([O-])c1ccc(Oc2nc3ccccc3nc2C(Cl)(Cl)Cl)cc1` [3i, 2-(4-Nitrophenoxy)-3-trichloromethylquinoxaline]: the “Parasite growth over three life cycles (ratio treated/untreated)” value is “drastic reduction in the parasite growth within the first life cycle”.
